Laboratory results as given in the supplement of paper PMC13380429.

Experiments:
Conditions in all cases: 72 h
[1] = test system: HepG2; assay: relative viability EC50 (midpoint between 100% and the lowest measured viability); higher = less toxic
[2] = test system: Caco-2; assay: as above
[3] = test system: Vero E6; assay: as above
[4] = test system: U2OS; assay: as above
[5] = test system: Calu-3; assay: as above
[6] = test system: HepG2; assay: drug sensitivity score (DSS) for viability; higher = more toxic; extreme values may be limits of the assay
[7] = test system: Caco-2; assay: as above
[8] = test system: Vero E6; assay: as above
[9] = test system: U2OS; assay: as above
[10] = test system: Calu-3; assay: as above
[11] = test system: HepG2; assay: cell viability relative to DMSO; higher = less toxic
[12] = test system: Caco-2; assay: as above
[13] = test system: Vero E6; assay: as above
[14] = test system: U2OS; assay: as above
[15] = test system: Calu-3; assay: as above

Structure (SMILES) | relative viability EC50 [1] [µM] | relative viability EC50 [2] [µM] | relative viability EC50 [3] [µM] | relative viability EC50 [4] [µM] | relative viability EC50 [5] [µM] | drug sensitivity score [6] | drug sensitivity score [7] | drug sensitivity score [8] | drug sensitivity score [9] | drug sensitivity score [10] | cell viability ([11]; 1 nM) [%] | cell viability ([11]; 10 nM) [%] | cell viability ([11]; 100 nM) [%] | cell viability ([11]; 1000 nM) [%] | cell viability ([11]; 10000 nM) [%] | cell viability ([12]; 1 nM) [%] | cell viability ([12]; 10 nM) [%] | cell viability ([12]; 100 nM) [%] | cell viability ([12]; 1000 nM) [%] | cell viability ([12]; 10000 nM) [%] | cell viability ([13]; 1 nM) [%] | cell viability ([13]; 10 nM) [%] | cell viability ([13]; 100 nM) [%] | cell viability ([13]; 1000 nM) [%] | cell viability ([13]; 10000 nM) [%] | cell viability ([14]; 1 nM) [%] | cell viability ([14]; 10 nM) [%] | cell viability ([14]; 100 nM) [%] | cell viability ([14]; 1000 nM) [%] | cell viability ([14]; 10000 nM) [%] | cell viability ([15]; 1 nM) [%] | cell viability ([15]; 10 nM) [%] | cell viability ([15]; 100 nM) [%] | cell viability ([15]; 1000 nM) [%] | cell viability ([15]; 10000 nM) [%]
COc1cc(OC)nc(O[C@H](C(=O)O)C(OC)(c2ccccc2)c2ccccc2)n1 [darusentan] | > 10 | > 10 | > 10 | > 10 | > 10 | 0 | 0 | 0 | 0 | 0 | 98.2 | 98.8 | 93.6 | 95.5 | 91.3 | 102 | 96.9 | 97.3 | 95.1 | 102 | 96.5 | 98.8 | 97.2 | 92.3 | 98.6 | 97.1 | 102 | 91 | 96.9 | 94.6 | 111 | 93.3 | 99.1 | 101 | 101
CC1(C)S[C@@H]2[C@H](NC(=O)[C@H](N)c3ccc(O)cc3)C(=O)N2[C@H]1C(=O)O [amoxicillin] | > 10 | > 10 | > 10 | > 10 | > 10 | 0 | 0 | 0 | 0 | 0 | 99.3 | 106 | 97.3 | 98.2 | 96.4 | 85 | 78.5 | 85.4 | 97 | 97.7 | 101 | 97.8 | 98.2 | 88.2 | 102 | 102 | 103 | 96.2 | 102 | 106 | 109 | 110 | 110 | 106 | 96.5
CC(=O)CC/C=C(\C)CC/C=C(\C)CC/C=C(\C)CCC=C(C)C [teprenone] | > 10 | > 10 | > 10 | > 10 | > 10 | 0 | 0 | 0 | 0 | 0 | 96.3 | 102 | 97.4 | 92.3 | 101 | 96.9 | 88.2 | 93.7 | 98.6 | 116 | 94.8 | 103 | 92.6 | 103 | 100 | 102 | 95.4 | 103 | 96.9 | 99.2 | 92.2 | 88.5 | 99.7 | 95.5 | 94.9
CCOC(=O)c1c(/C(C#N)=C\N)c2ccc(Cl)c(Cl)c2n1C [KH-CB19] | > 10 | > 10 | > 10 | > 10 | > 10 | 0 | 0 | 0 | 0 | 0 | 99.8 | 105 | 98.7 | 102 | 93.2 | 101 | 93.6 | 103 | 99.2 | 92.4 | 96.2 | 104 | 98.4 | 103 | 92 | 102 | 99.6 | 103 | 96.5 | 107 | 98.2 | 97.7 | 96.6 | 101 | 101
O=C(O[C@H]1[C@H](OC(=O)c2cccnc2)[C@@H](OC(=O)c2cccnc2)[C@H](OC(=O)c2cccnc2)[C@@H](OC(=O)c2cccnc2)[C@H]1OC(=O)c1cccnc1)c1cccnc1 [inositol-hexanicotinate] | > 10 | > 10 | > 10 | > 10 | > 10 | 0 | 0 | 0 | 0 | 0 | 90.9 | 112 | 89.1 | 96.5 | 94.6 | 92.2 | 88.9 | 103 | 89.3 | 91.2 | 105 | 102 | 90.9 | 93.7 | 113 | 92.4 | 90.5 | 99 | 98.5 | 99.4 | 102 | 93.3 | 100 | 103 | 110
C=CC[C@]1(O)CC[C@H]2[C@@H]3CCC4=CCCC[C@@H]4[C@H]3CC[C@@]21C [allylestrenol] | > 10 | > 10 | > 10 | > 10 | > 10 | 0 | 0 | 0 | 0 | 0 | 105 | 104 | 108 | 105 | 98.3 | 107 | 102 | 112 | 102 | 88.8 | 102 | 91.5 | 106 | 103 | 97.7 | 94.6 | 98.1 | 94.8 | 99.4 | 99.5 | 98 | 108 | 116 | 104 | 106
CC(C)C[C@@H](N)C1(c2ccc(Cl)cc2)CCC1 | > 10 | > 10 | > 10 | > 10 | > 10 | 0 | 0 | 0 | 0 | 0 | 104 | 99.9 | 110 | 103 | 104 | 101 | 103 | 108 | 96 | 90.3 | 106 | 101 | 100 | 98.8 | 105 | 98.9 | 98.3 | 94.2 | 99 | 94.1 | 96 | 104 | 109 | 89.9 | 102
